The structures appear in SMILES notation. Where two headings read alike, the source gives them in different places. Where only a bound is given, the exact number is not on record here.

The results in this text go back to US8304427B2, “Acylthiourea compound or salt thereof, and use thereof” (Taiho Pharmaceutical Co., Ltd., priority 2008, dated 2012).

Assay [1] has as its system HMEC (human skin microvascular endothelial cell). In words: Cell proliferation inhibition test against normal cells HMEC. It is filed as cell-based. Particulars: for IC50: Homo sapiens, 72 h, HMEC, read-out: IC50 HMEC; for ratio HMEC: IC50 HMEC relative to IC50 NUGC4. The procedure:
[Worded in the source for another cell line; this cell line is reported under the same test.] (§1) The thus-prepared test compound solution was added to each well of the NUGC4 cell culture plate at 0.1 mL/well, and the plate was incubated in an incubator under 5% CO2 gas atmosphere at 37° C. for 3 days. […] Thereafter, the plate was washed with tap water and dried. Then, aqueous 0.05% Crystal Violet/20% methanol solution (product of Wako Pure Chemical Industries Ltd.) was added to each well at 100 μL/well, and the plate was left to stand at room temperature for 20 minutes, whereby cells were stained. Thereafter, the plate was washed with tap water and dried. To each well, 0.05 M NaH2PO4/ethanol (1/1=v/v) (100 μL) was added, to thereby extract Crystal Violet. The absorbance of the extracted Crystal Violet was measured at 540 nm using a microplate reader, and the absorbance was employed as an index for living cell count. […] Percent inhibition (%)=(C−T)/C×100 • T: Absorbance of well to which a test compound was added • C: Absorbance of well to which no test compound was added

The subject of a further assay is HCT-116. In words: Cell proliferation inhibition test against c-Met low expressing tumor cells (HCT-116). It counts as cell-based. Particulars: for IC50: Homo sapiens, read-out: IC50 HCT-116; for ratio HCT-116: IC50 HCT-116 relative to IC50 NUGC4.
A further assay relates to NUGC4 cells. In words: Cell-proliferation inhibitory assay against NUGC4 cells (Crystal Violet). Particulars: Homo sapiens, NUGC-4, 72 h; NUGC4, cancer, c-Met status (+), 3 days. It is filed as cell-based. The procedure:
Cell-Proliferation Inhibitory Assay Against NUGC4 Cells (Human Gastric Cancer Cell Strain in Which c-Met is Over-Expressed and Highly Activated), In Vitro Test
NUGC4 cell suspension (in a 10% FBS-containing RPMI 1640 medium (product of Wako Pure Chemical Industries Ltd.) or a FBS-containing DMEM medium (product of Nacalai Tesque, Inc.)) was inoculated to each well of a 96-well (flat-bottom) microplate in an amount of 2×10^3 cells (0.1 mL), and the plate was incubated in an incubator under 5% CO2 gas atmosphere at 37° C. for one day. Each of the compounds of the present invention and comparative compound 1 was dissolved in dimethyl sulfoxide to a concentration of 30 mM. The solution was diluted with 10% FBS-containing RPMI 1640 or DMEM medium, to a final test compound concentration of 60, 20, 6, 2, 0.6, or 0.2 μM. The thus-prepared test compound solution was added to each well of the NUGC4 cell culture plate at 0.1 mL/well, and the plate was incubated in an incubator under 5% CO2 gas atmosphere at 37° C. for 3 days. After culturing, 25% aqueous glutaraldehyde solution (product of Nacalai Tesque, Inc.) was added to each well at 20 μL, and the plate was left to stand at room temperature for 20 minutes, whereby cells were fixed. Thereafter, the plate was washed with tap water and dried. Then, aqueous 0.05% Crystal Violet/20% methanol solution (product of Wako Pure Chemical Industries Ltd.) was added to each well at 100 μL/well, and the plate was left to stand at room temperature for 20 minutes, whereby cells were stained. Thereafter, the plate was washed with tap water and dried. To each well, 0.05 M NaH2PO4/ethanol (1/1=v/v) (100 μL) was added, to thereby extract Crystal Violet. The absorbance of the extracted Crystal Violet was measured at 540 nm using a microplate reader, and the absorbance was employed as an index for living cell count. Percent inhibition was calculated by the following equation, and the 50% inhibition test compound concentration (IC50 (μM)) was calculated. Percent inhibition (%)=(C−T)/C×100 • T: Absorbance of well to which a test compound was added • C: Absorbance of well to which no test compound was added

Assay [2] addresses T1, c-Met (Homo sapiens, UniProt P08581). Put plainly: c-Met inhibitory assay using AlphaScreen (Method A). It counts as biochemical. The arrangement: purchased Carna bio Co., Ltd 08-051. Particulars: ATP 20 μM. The procedure:
Inhibitory activity of compounds against c-Met kinase was determined through the following procedures. Method A) c-Met inhibitory assay using AlphaScreen™
A biotinylated peptide including a phosphorylated site of Pyk2 (Tyr402), which is reported as a bio-substrate in Clin. Cancer Res. vol. […] The mixture was allowed to react at room temperature for 20 minutes. EDTA was added to the reaction mixture to a final concentration of 50 mM, to thereby terminate reaction. […] The reaction was done for one hour at room temperature. Thereafter, the fluorescence intensity from the reaction mixture was measured using a multi-label counter (EnVision™, Perkin Elmer).
Target sequence in this assay (P08581 956-1390 limits assumed): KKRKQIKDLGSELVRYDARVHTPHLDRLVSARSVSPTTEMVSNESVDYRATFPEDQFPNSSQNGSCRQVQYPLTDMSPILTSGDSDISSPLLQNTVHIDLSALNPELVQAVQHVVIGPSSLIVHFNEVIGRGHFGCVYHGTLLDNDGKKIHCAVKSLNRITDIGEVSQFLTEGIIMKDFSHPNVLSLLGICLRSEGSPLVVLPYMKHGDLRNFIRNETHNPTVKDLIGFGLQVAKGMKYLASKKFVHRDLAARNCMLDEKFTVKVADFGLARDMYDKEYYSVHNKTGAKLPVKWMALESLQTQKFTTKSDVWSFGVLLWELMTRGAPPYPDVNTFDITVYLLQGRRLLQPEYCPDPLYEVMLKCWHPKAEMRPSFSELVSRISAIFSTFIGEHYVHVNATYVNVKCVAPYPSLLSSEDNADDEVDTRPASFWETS
(Bead proximity is the source of the signal in Alpha formats.)

For assay [3], the system named is HAOSMC (human aortic smooth muscle cell). In words: Cell proliferation inhibition test against normal cells HAOSMC. Particulars: for IC50: Homo sapiens, 72 h, read-out: IC50 HAOSMC; for ratio HAOSMC: IC50 HAOSMC relative to IC50 NUGC4. It counts as cell-based. The procedure: [Worded in the source for another cell line; this cell line is reported under the same test.] as §1

Assay [4] deals with T1, c-Met. In words: c-Met inhibitory assay using DeskTop Profiler (Method B). It counts as biochemical. The arrangement: made in house. Particulars: ATP 43 μM. The protocol: Method B) c-Met Inhibitory Assay Using DeskTop Profiler
A dephosphorylation enzyme inhibitor cocktail (PhosSTOP, #4906837, product of Roche) and a protease inhibitor cocktail (Complete, Mini, EDTA-free, #1836170; product of Roche) were added to a reaction buffer (100 mM HEPES (pH: 7.5), 10 mM MgCl2, 0.003% Brij-35, 0.04% Tween, and 1 mM DTT). In the presence of the compound of the present invention, recombinant c-Met (purified product of Taiho Pharmaceutical Co., Ltd.), fluorescence-labeled c-Met substrate peptide (FL-Peptide 2, #760346, Caliper Life Sciences) (final concentration: 1.5 μM), and ATP (final concentration: 43 μM) were added thereto, and the mixture was allowed to react at 28° C. for 90 minutes. EDTA was added to the reaction mixture to a final concentration of 10 mM, to thereby terminate reaction. By use of DeskTop Profiler (#119900, Caliper Life Sciences), each fluorescence intensity of the substrate and that of the phosphorylated product was determined, whereby the amount of the formed phosphorylated product was determined. The compound concentration that realizes 50% inhibition of formation of phosphorylated product was defined as IC50 (μM), and the results are shown in the following Tables.
Target sequence in this assay (P08581 25-1390): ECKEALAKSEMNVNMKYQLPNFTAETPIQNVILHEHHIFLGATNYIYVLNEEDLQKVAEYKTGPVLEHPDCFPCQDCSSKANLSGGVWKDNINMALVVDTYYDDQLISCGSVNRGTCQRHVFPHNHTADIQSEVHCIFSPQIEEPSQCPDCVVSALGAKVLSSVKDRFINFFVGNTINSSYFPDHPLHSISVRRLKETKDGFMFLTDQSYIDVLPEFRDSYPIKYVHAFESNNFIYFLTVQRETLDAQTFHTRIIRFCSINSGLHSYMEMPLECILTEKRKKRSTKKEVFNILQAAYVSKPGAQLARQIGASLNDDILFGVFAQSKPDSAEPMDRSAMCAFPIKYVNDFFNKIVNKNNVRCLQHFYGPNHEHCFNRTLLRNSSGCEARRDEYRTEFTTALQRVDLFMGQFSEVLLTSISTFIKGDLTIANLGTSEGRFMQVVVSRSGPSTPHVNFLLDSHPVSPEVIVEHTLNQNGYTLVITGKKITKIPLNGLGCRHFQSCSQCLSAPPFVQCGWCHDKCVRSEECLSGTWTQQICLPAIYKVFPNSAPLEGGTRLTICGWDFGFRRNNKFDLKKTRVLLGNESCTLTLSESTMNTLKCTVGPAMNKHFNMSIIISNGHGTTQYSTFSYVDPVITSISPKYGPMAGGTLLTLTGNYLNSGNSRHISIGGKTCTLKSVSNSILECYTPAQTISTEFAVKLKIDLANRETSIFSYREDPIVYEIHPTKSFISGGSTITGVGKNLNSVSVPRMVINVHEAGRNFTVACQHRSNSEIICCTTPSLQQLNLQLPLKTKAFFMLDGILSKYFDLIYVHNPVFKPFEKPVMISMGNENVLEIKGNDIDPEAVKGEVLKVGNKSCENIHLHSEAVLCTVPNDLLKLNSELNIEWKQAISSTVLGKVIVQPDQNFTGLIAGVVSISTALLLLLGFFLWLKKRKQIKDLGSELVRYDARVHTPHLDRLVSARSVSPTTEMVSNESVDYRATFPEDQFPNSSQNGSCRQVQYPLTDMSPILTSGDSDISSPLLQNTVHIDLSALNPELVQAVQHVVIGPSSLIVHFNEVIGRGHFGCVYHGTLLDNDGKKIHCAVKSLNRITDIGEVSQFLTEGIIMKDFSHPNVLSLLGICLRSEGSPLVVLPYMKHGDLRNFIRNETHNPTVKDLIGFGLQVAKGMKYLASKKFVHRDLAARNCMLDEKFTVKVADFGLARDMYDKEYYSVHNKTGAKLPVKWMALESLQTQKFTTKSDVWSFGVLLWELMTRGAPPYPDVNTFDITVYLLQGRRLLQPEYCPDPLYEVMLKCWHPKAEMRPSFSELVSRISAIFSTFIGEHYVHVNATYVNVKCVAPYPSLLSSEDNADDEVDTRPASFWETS

Setting [5] is: normal, c-Met status (−), 3 days.
[6] abbreviates: 72 h, HCT-116, cancer, c-Met status (−), 3 days.
Setting [7] is: HAOSMC, normal, c-Met status (−), 3 days.

For `COc1cc2nccc(Oc3ccc(NC(=S)NC(=O)Cc4ccccc4)cc3F)c2cc1C(=O)NCCCN1CCCC1=O` [Example 5, 4-(2-Fluoro-4-(3-(2-phenylacetyl)thioureido)phenoxy)-7-methoxy-N-(3-(2-oxopyrrolidin-1-yl)propyl)quinoline-6-carboxamide], the IC50 was 23000 nM in assay [1] (setting [5]); 29000 nM in the assay on HCT-116 (setting [6]); 30 nM in the assay with NUGC4 cells; 116 nM on c-Met [2]; greater than 30000 nM in assay [3] (setting [7]). Further, the “ratio HMEC” value in assay [1] is listed as 681. For the same molecule, the “ratio HCT-116” value in the assay on HCT-116 is 857. Moreover, in assay [3], the “ratio HAOSMC” value is recorded as greater than 879.

As to `COc1cc2nccc(Oc3ccc(NC(=S)NC(=O)Cc4ccc(F)cc4)cc3F)c2cc1C(=O)NC1CCCCNC1=O` (centres unmarked) [Example 19, 4-(2-Fluoro-4-(3-(2-(4-fluorophenyl)acetyl)thioureido)phenoxy)-7-methoxy-N-(2-oxoazepan-3-yl)quinoline-6-carboxamide], the half-maximal inhibitory concentration (IC50) was 18000 nM in assay [1] (setting [5]); greater than 30000 nM with HCT-116 (setting [6]); 10 nM in the assay on NUGC4 cells; 338 nM at c-Met [2]; greater than 30000 nM in assay [3] (setting [7]). Moreover, the “ratio HMEC” value in assay [1] was 3000. Also, the “ratio HCT-116” value in the assay with HCT-116 is greater than 3000. In addition, the “ratio HAOSMC” value in assay [3] is recorded as greater than 3000.

Turning to `COc1cc2nccc(Oc3ccc(NC(=S)NC(=O)Cc4ccc(F)cc4)cc3F)c2cc1C(=O)NCCN1CCOCC1` [Example 37, 4-(2-fluoro-4-(3-(2-(4-fluorophenyl)acetyl)thioureido)phenoxy)-7-methoxy-N-(2-morpholinoethyl)quinoline-6-carboxamide], the IC50 was greater than 30000 nM with HCT-116 (setting [6]), 35 nM against c-Met [4] and 10 nM with NUGC4 cells. In addition, the “ratio HCT-116” value with HCT-116 is given as greater than 3000.

Turning to `COc1cc2nccc(Oc3ccc(NC(=S)NC(=O)Cc4ccccc4)cc3F)c2cc1C(=O)NCC(=O)N(C)C` [Example 22, N-(2-(Dimethylamino)-2-oxoethyl)-4-(2-fluoro-4-(3-(2-phenylacetyl)thioureido)phenoxy)-7-methoxyquinoline-6-carboxamide], the half-inhibitory concentration (IC50) was greater than 30000 nM in assay [1] (setting [5]); greater than 30000 nM with HCT-116 (setting [6]); 10 nM in the assay with NUGC4 cells; 250 nM against c-Met [2]; greater than 30000 nM in assay [3] (setting [7]). Moreover, in assay [1], the “ratio HMEC” value is reported as greater than 3000. Also, in the assay on HCT-116, the “ratio HCT-116” value is greater than 3000. The “ratio HAOSMC” value in assay [3] is given as greater than 3000.

As to `COc1cc2nccc(Oc3ccc(NC(=S)NC(=O)Cc4ccccc4)cc3F)c2cc1C(=O)NCC(=O)N1CCOCC1` [Example 21, 4-(2-Fluoro-4-(3-(2-phenylacetyl)thioureido)phenoxy)-7-methoxy-N-(2-morpholino-2-oxoethyl)quinoline-6-carboxamide], the half-inhibitory concentration (IC50) in assay [1] (setting [5]) is 5000 nM; in the assay on HCT-116 (setting [6]) it was greater than 30000 nM; in the assay with NUGC4 cells, 10 nM; on c-Met [2], 118 nM; in assay [3] (setting [7]), greater than 30000 nM. Also, the “ratio HMEC” value in assay [1] is 3000. The “ratio HCT-116” value with HCT-116 was greater than 3000. The “ratio HAOSMC” value in assay [3] is given as greater than 3000.

Consider `COc1cc2nccc(Oc3ccc(NC(=S)NC(=O)Cc4ccccc4)cc3F)c2cc1C(=O)NCCS(C)(=O)=O` [Example 27, 4-(2-Fluoro-4-(3-(2-phenylacetyl)thioureido)phenoxy)-7-methoxy-N-(2-(methylsulfonyl)ethyl)quinoline-6-carboxamide], for which the half-inhibitory concentration (IC50) in assay [1] (setting [5]) is 14000 nM; in the assay on HCT-116 (setting [6]) it was 11000 nM; with NUGC4 cells it was 20 nM; against c-Met [2], 59 nM; in assay [3] (setting [7]), greater than 30000 nM. Besides, in assay [1], the “ratio HMEC” value came to 1894. In addition, in the assay with HCT-116, the “ratio HCT-116” value stood at 714. In addition, the “ratio HAOSMC” value in assay [3] is given as greater than 1893.

On to `COc1cc2nccc(Oc3ccc(NC(=S)NC(=O)Cc4ccccc4)cc3F)c2cc1C(=O)NCC(=O)N1CCC[C@H]1CO` [Example 34, (S)-4-(2-Fluoro-4-(3-(2-phenylacetyl)thioureido)phenoxy)-N-(2-(2-(hydroxymethyl)pyrrolidin-1-yl)-2-oxoethyl)-7-methoxyquinoline-6-carboxamide], for which the values for the IC50 in the assay with HCT-116 (setting [6]), against c-Met [4] and in the assay with NUGC4 cells were greater than 30000 nM, 22 nM and 20 nM, respectively. In addition, in the assay on HCT-116, the “ratio HCT-116” value was greater than 2000.

On to `COc1cc2nccc(Oc3ccc(NC(=S)NC(=O)Cc4ccccc4)cc3F)c2cc1C(=O)NCC(C)(C)O` [Example 24, 4-(2-Fluoro-4-(3-(2-phenylacetyl)thioureido)phenoxy)-N-(2-hydroxy-2-methylpropyl)-7-methoxyquinoline-6-carboxamide], for which the IC50 in assay [1] was 16000 nM; in the assay on HCT-116 (HCT-116, 72 h), 23000 nM; with NUGC4 cells it was 20 nM; at c-Met [2] it was 33 nM; in assay [3] it was greater than 30000 nM. For the same molecule, the “ratio HMEC” value in assay [1] was 1552. The “ratio HCT-116” value in the assay on HCT-116 is on record as 1181. Besides, in assay [3], the “ratio HAOSMC” value is recorded as greater than 1552.

Take `CC[C@@H](CO)NC(=O)c1cc2c(Oc3ccc(NC(=S)NC(=O)Cc4ccc(F)cc4)cc3F)ccnc2cc1OC` [Example 38, (S)-4-(2-Fluoro-4-(3-(2-(4-fluorophenyl)acetyl)thioureido)phenoxy)-N-(1-hydroxybutan-2-yl)-7-methoxyquinoline-6-carboxamide]: the concentration for half-maximal inhibition (IC50) in the assay with HCT-116 (HCT-116, 72 h) is greater than 30000 nM; on c-Met [4], 32 nM; in the assay with NUGC4 cells, 40 nM. The “ratio HCT-116” value with HCT-116 is listed as greater than 719.

`CCNC(=O)N1CCC(NC(=O)c2cc3c(Oc4ccc(NC(=S)NC(=O)Cc5ccccc5)cc4F)ccnc3cc2OC)CC1` [Example 15, N-(1-(Ethylcarbamoyl)piperidin-4-yl)-4-(2-fluoro-4-(3-(2-phenylacetyl)thioureido)phenoxy)-7-methoxyquinoline-6-carboxamide]: the IC50 was greater than 30000 nM in assay [1] (setting [5]); greater than 30000 nM with HCT-116 (setting [6]); 20 nM in the assay on NUGC4 cells; 138 nM against c-Met [2]; greater than 30000 nM in assay [3] (setting [7]). In addition, in assay [1], the “ratio HMEC” value is greater than 1584. Besides, in the assay with HCT-116, the “ratio HCT-116” value is recorded as greater than 1584. Also, the “ratio HAOSMC” value in assay [3] is greater than 1584.

The IC50 is the concentration that gives 50% inhibition.
